The text below walks through data of PubChem BioAssay AID1902 (Broad Institute, 2009).

Activity calls are given as the source filed them.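 How the source made its calls: active means EC50 no more than a set limit of log units above the highest dose; inactive means the rest.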 Bounds are passed on as bounds.

By EC50 is commonly meant the concentration needed to bring the measured effect to its halfway point.

The target in this assay is S. pyogenes SKKanGAS, kanamycin survival, BacTiterGlo, 6 h. In words: S. pyogenes SKKanGAS kanamycin growth inhibitors – SKKanGAS strain, luminescence, dose confirmation, streptokinase promoter inhibitor project, dose response (AID 1902).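 Further: lower survival reflects blocked streptokinase promoter driving kanamycin resistance gene.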
As to `CCOC(=O)/C(=N\Nc1ccc(OC)cc1)c1csc(Nc2ccccc2)n1`, the EC50 was 2.45 µM.

For `O=C1NC(=Nc2ccc(Cl)cc2)SC1Cc1cc(Cl)ccc1Cl` (centres undefined), the half-maximal effective concentration (EC50) was 2.97 µM.

In the case of `O=C(N/N=C/c1ccccn1)c1ccc(Cl)c(Cl)c1`, the EC50 is 6.85 µM.

Regarding `O=C(CSc1nc2c(cnn2-c2ccccc2)c(=O)[nH]1)N1N=C(c2cccs2)CC1c1ccc(F)cc1` (centres undefined), the 50% effective concentration (EC50) was 1.62 µM.

In the case of `Cc1cc(C(=O)OC(C(=O)Nc2cccc(C(F)(F)F)c2)c2ccccc2)c(C)o1` (centres undefined), the EC50 is 10.1 µM.

Regarding `Cc1c(C)n(Cc2ccc(F)cc2)c2ccc(C(=O)N3CCN(c4ccccn4)CC3)cc12`, the EC50 is 6.11 µM.

`Cc1cccc(/C=N/NC(=O)Cc2ccc(Cl)cc2)c1O`: the EC50 was 3.53 µM.

On to `Oc1ccc(Br)cc1/C=N/NC(=S)NCCc1ccccc1`, for which the EC50 is 1.93 µM.

`Cc1cccc(CSc2ncnc3c2cnn3Cc2ccccc2)c1`: the EC50 was 4.58 µM.

As to `CC12CC3(C)CC(C)(C1)CC(C(=O)NC1=NCCS1)(C2)C3`, the EC50 was 0.992 µM.

`CC1=C(C(=O)Nc2ccc([N+](=O)[O-])cc2)C(c2cccc(C(F)(F)F)c2)NC(=S)N1c1ccccc1` (centres undefined): the EC50 is 4.02 µM.

Turning to `O=c1[nH]c(CN2CC=C(c3ccccc3)CC2)nc2scc(-c3cccs3)c12`, the EC50 was 3.87 µM.

In the case of `c1ccc(-c2csc3ncnc(N4CCc5ccccc5C4)c23)cc1`, the EC50 was 7.04 µM.

Consider `CCOc1ccc(N(CC(=O)NCc2ccc(C)cc2)S(=O)(=O)c2c(C)[nH]c(=O)[nH]c2=O)cc1`, for which the EC50 was > 15 µM (inactive).

In the case of `COc1ccc(C)cc1N=Nc1ccc(O)c2ncccc12`, the EC50 was 0.168 µM.

For the molecule `Cc1onc(-c2ccccc2)c1C(=O)NC(=S)NNC(=O)c1ccco1`, the EC50 was 0.943 µM.

Regarding `CCOC(=O)c1sc2ncnc(NCC(c3cccs3)N(C)C)c2c1C` (centres undefined), the EC50 was 7.95 µM.

Consider `COc1cccc(-c2nn(-c3ccccc3)cc2C(=O)Nc2nccs2)c1`, for which the EC50 was 2.98 µM.

Consider `O=C(Nc1ccc2c(c1)CCC2)c1cc(S(=O)(=O)Nc2ccc(F)cc2)c(Cl)cc1Cl`, for which the EC50 is 4.04 µM.

On to `CCc1ccc(-c2ccc3nnc(SCC(N)=O)n3n2)cc1`, for which the EC50 is 1.66 µM.

On to `O=C(N/N=C/c1cc([N+](=O)[O-])ccc1O)c1cccc(N2CCCC2=O)c1`, for which the EC50 is 1.21 µM.

As to `CC[C@H]1OC(=O)C[C@@H](O)[C@H](C)[C@@H](O[C@@H]2O[C@H](C)C[C@H](N(C)C)[C@H]2O)[C@@H](CC=O)C[C@@H](C)C(=O)C=C[C@]2(C)O[C@H]2[C@@H]1C`, the EC50 was less than 0.06 µM.

Consider `C/C(=N\NC(=O)c1cc(Br)ccc1O)c1ccccn1`, for which the EC50 is less than 0.06 µM.

Turning to `CC(C)C1C(c2ccccc2)N(C)C(c2ccccc2)CC1(O)c1ccccc1` (centres undefined), the half-maximal effective concentration (EC50) is 2.48 µM.

As to `COc1ccc(CC2=CC(=O)c3ccccc3C2=O)cc1`, the concentration giving a half-maximal response (EC50) was 7.96 µM.

Regarding `NC(=NCCCCCCN=C(N)/N=C(\N)Nc1ccc(Cl)cc1)/N=C(\N)Nc1ccc(Cl)cc1`, the half-maximal effective concentration (EC50) is 0.789 µM.

For the molecule `Cc1[nH]c2ccccc2c1C(c1ccccn1)c1c(C)[nH]c2ccccc12`, the EC50 was 8.63 µM.

As to `COc1ccc(NC(=O)c2ccc3c(c2)NC(=O)CS3)cc1S(=O)(=O)Nc1ccc(Br)cc1`, the concentration giving a half-maximal response (EC50) was 3.38 µM.

On to `CCc1ccc(OCC(=O)NC(NC(=S)Nc2ccc(C)cc2C)C(Cl)(Cl)Cl)cc1` (centres undefined), for which the EC50 was 4.44 µM.

As to `O=C(N/N=C/c1c(O)ccc2ccccc12)c1ccc(Br)o1`, the concentration for a half-maximal effect (EC50) is 2.3 µM.

Take `COc1ccccc1-n1cnc2c(c1=O)c1nc3ccccc3nc1n2-c1ccc(C)c(C)c1`: the EC50 is 9.11 µM.

On to `O=C(NNc1ccccc1Br)C(O)(c1cccc(C(F)(F)F)c1)c1cccc(C(F)(F)F)c1`, for which the EC50 was 2.59 µM.

On to `CC(=O)Nc1ccc(C#Cc2ccc(NC(C)=O)cc2)cc1`, for which the EC50 was 1.19 µM.

With `CC(=O)c1ccc(N2CCC(c3cc(-c4ccc(Cl)cc4Cl)n[nH]3)CC2)c([N+](=O)[O-])c1`, the EC50 is 2.15 µM.

For the molecule `O=C(Nc1nnc(-c2ccc(Br)cc2)o1)c1ccco1`, the EC50 was 1.2 µM.

`C=CCn1c(O)c(C(CC)=Nc2ccc(N(C)C)cc2)c(=O)[nH]c1=O`: the EC50 was 3.05 µM.

For `Cc1nn(-c2ccccc2)c(Cl)c1C1C(C#N)=C(N)OC2=C1C(=O)CC(C)(C)C2` (centres undefined), the EC50 was 1.45 µM.

For `CCn1cc(C(=O)O)c(=O)c2cc(F)c(N3CCN(C(=S)NC(=O)c4cc(OC)cc(OC)c4)CC3)cc21`, the EC50 is 2.91 µM.

Take `COc1cc(/C=N\NC(=O)c2ccc(Cn3cc(Br)c([N+](=O)[O-])n3)o2)cc(OC)c1O`: the half-maximal effective concentration (EC50) is 4.97 µM.

For `COc1ccc(C(=O)Nc2cccc(/C=C(\CCC(=O)O)c3nc4ccccc4s3)c2)cc1`, the EC50 was 8.09 µM.

`CC(C)C(=O)NC(c1ccco1)c1ccc2cccnc2c1O` (centres undefined): the EC50 was 2.44 µM.

Consider `COc1ccc(-c2coc3c(C)c4oc(=O)c(CCC(=O)O)c(C)c4cc23)cc1`, for which the EC50 is 2.13 µM.

On to `CCCCOc1ccc(-c2c(C#N)c(N)nc(SCC(N)=O)c2C#N)cc1`, for which the EC50 is 4.61 µM.

Regarding `Oc1cccc2ccc(/C=C/c3ccccc3Cl)nc12`, the EC50 was 0.248 µM.

On to `CCn1cc(CN2CCC(C(=O)Nc3ccc(Oc4cccnc4)cc3)CC2)cn1`, for which the EC50 is > 15 µM (inactive).

With `CCc1ccc(/C=C2\SC(=S)N(CCCC(=O)Nc3ccccc3C(=O)O)C2=O)cc1`, the EC50 is 3.35 µM.

Take `Brc1ccc2[nH]c3c(N4CCc5ccccc5C4)ncnc3c2c1`: the 50% effective concentration (EC50) is 6.22 µM.

For the molecule `FC(F)(F)c1cccc(-c2nc3nc(Cl)c(Cl)nc3[nH]2)c1`, the EC50 is 6.58 µM.

As for `Cc1ccc(S(=O)(=O)Nc2cc(Cl)c(O)c3ncccc23)cc1`, the EC50 is 7.11 µM.

As for `Cc1ccc(CNC(=S)Nc2ccc(NS(=O)(=O)c3ccc(C)cc3)cc2)cc1`, the 50% effective concentration (EC50) is 8.28 µM.

With `NC1CCN(c2nc3c(cc2F)c(=O)c(C(=O)O)cn3-c2ccc(F)cc2F)C1` (centres undefined), the EC50 is 0.296 µM.

On to `CCCCNc1c(-c2ccc(SC3CCCCC3)cc2)nc2ccccn12`, for which the EC50 is 3.87 µM.

`CCCCCC(=O)Cc1cc(O)cc2c1C(=O)Oc1cc(O)c(C(=O)O)c(CCCCC)c1O2`: the EC50 is 6.67 µM.

For the molecule `Cc1ccc2nc(N/C(=N/S(=O)(=O)c3ccc(F)cc3)c3ccccc3)sc2c1`, the EC50 was 6.17 µM.

As for `Cc1nn2c(NCc3ccccn3)cc(C(C)C)nc2c1-c1ccccc1`, the EC50 is 5.94 µM.

For the molecule `COc1c(N2CCNC(C)C2)c(F)cc2c(=O)c(C(=O)O)cn(C3CC3)c12` (centres undefined), the EC50 is 0.668 µM.

With `Cc1ccc(C(C)C)c(OCc2ccc(C(=O)N/N=C/c3ccc(O)cc3O)cc2)c1`, the EC50 was 1.26 µM.

For the molecule `O=C(COc1ccccc1)NC1C(=O)N2C(C(=O)O)=C(Cl)CSC12` (centres undefined), the EC50 is 0.128 µM.

Turning to `CCc1ccc(-c2cc(C)no2)cc1S(=O)(=O)Nc1cccc(CN2CCCC2)c1`, the EC50 was > 15 µM (inactive).

`CC12CCC(C(=O)NNC(=O)c3ccccc3)(OC1=O)C2(C)C` (centres undefined): the EC50 was > 15 µM (inactive).

For the molecule `Nc1nc(NCc2ccco2)nc(N2CCCCCC2)c1[N+](=O)[O-]`, the EC50 was 4.09 µM.

Turning to `COc1ccc(O)c(CN2CCC(n3nccc3NC(=O)CCOc3ccccc3)CC2)c1`, the EC50 was > 15 µM (inactive).

`CCn1nc(NC(=O)c2ccncc2)c2cc3cc(C)ccc3nc21`: the EC50 is 2.66 µM.

For the molecule `CC(C)=CCc1c(O)cc2c(c1O)C(=O)CC(c1ccc(O)cc1)O2` (centres undefined), the EC50 is 6.08 µM.

In the case of `O=C(Oc1ccc(Cl)c2cccnc12)c1ccco1`, the EC50 was 3.69 µM.

As for `CC(C)Cc1nnc(NC(=O)CCC(=O)N2CCN(c3ccccc3)CC2)s1`, the EC50 was > 15 µM (inactive).

As for `Cc1ccc(-c2cnc(N)n2C)cc1C`, the concentration giving a half-maximal response (EC50) is 4.13 µM.

For `Cc1ccnc(NS(=O)(=O)c2ccc(NC(=O)c3cc(-c4ccc(Br)cc4)nc4ccccc34)cc2)n1`, the EC50 was 3.34 µM.

As to `CO[C@@]1(NC(=O)Cc2cccs2)C(=O)N2C(C(=O)O)=C(COC(N)=O)CS[C@@H]21`, the EC50 was 3.33 µM.

`O=[N+]([O-])c1ccc(N=Nc2ccc(O)cc2O)cc1`: the EC50 was 2.94 µM.

For `O=C(C1CCCCC1)N1CCC(c2nc3c(nnn3Cc3c(F)cccc3Cl)c(=O)[nH]2)CC1`, the EC50 is 3.79 µM.

Regarding `S=c1[nH]nc(-c2cc(-c3ccccc3)n[nH]2)n1/N=C/c1ccc(Br)s1`, the EC50 was 5.22 µM.

Turning to `CCN1/C(=C/c2ccc3cc(C)ccc3[n+]2CC)Sc2ccc3sccc3c21`, the EC50 was 2.34 µM.

On to `O=C(NNC(=O)c1cc(-c2ccccc2)nc2ccccc12)Nc1cccc(Cl)c1`, for which the 50% effective concentration (EC50) was 3.87 µM.

For the molecule `Cn1cc(C(=O)c2ccc(Cl)cc2Cl)cc1C(=O)N/N=C(\N)COc1ccc(Cl)cc1Cl`, the EC50 is 1.72 µM.

On to `CC/C(=C\C=C\[C@@H]1C=C[C@@H]2CCC[C@H]2[C@@H]1C(=O)c1ccc[nH]1)[C@@H]1O[C@@H]([C@@H](C)C(=O)O)CC[C@@H]1C`, for which the EC50 is 0.127 µM.

For `C=C(CC1([C@@H](NP(=O)(c2ccccc2)c2ccccc2)[C@H]2C[C@@H]2CCCC)CC1)c1ccccc1`, the EC50 was 3.64 µM.

As for `O=C(CCCSc1ccccc1)Nc1nc(-c2ccccn2)cs1`, the EC50 was 6.17 µM.

Consider `COC(=O)c1ccc(C(=O)OC)c(NC(=O)CN(C)Cc2cccc(Cl)c2Cl)c1`, for which the EC50 was 7.7 µM.

Take `O=C(Nc1ccc(Cl)c(Cl)c1)O/N=C/c1ccncc1`: the EC50 was 2.38 µM.

As to `CO[C@H]1C=CO[C@@]2(C)Oc3c(C)c(O)c4c(O)c(c5c(nc6cc(C)ccn65)c4c3C2=O)NC(=O)C(C)=CC=C[C@H](C)[C@H](O)[C@@H](C)[C@@H](O)[C@@H](C)[C@H](OC(C)=O)[C@@H]1C`, the EC50 was less than 0.06 µM.

As to `CCCCCCCCCCOC(=O)Cn1c(COc2ccccc2OC)[n+](C)c2ccccc21`, the EC50 was 7.28 µM.

Turning to `Cc1onc(-c2c(Cl)cccc2Cl)c1C(=O)NC1C(=O)N2C1SC(C)(C)C2C(=O)O` (centres undefined), the EC50 is less than 0.06 µM.

Take `COc1ccc(CC(=O)NC(=S)NNC(=O)COc2c(C)cccc2C)cc1`: the EC50 is 0.134 µM.

On to `O=C(Nc1nnc(C2CC2)o1)c1ccc(S(=O)(=O)N2CCCc3ccccc32)cc1`, for which the EC50 is 1.34 µM.

As to `Cc1ccccc1-c1cc(-c2ccccc2O)n[nH]1`, the half-maximal effective concentration (EC50) is 12.3 µM.

As to `Cc1nn(C(=O)c2cccnc2)c(C)c1Sc1ccc(Br)cc1`, the EC50 was 4.36 µM.

For the molecule `Nc1[nH]n2c(=O)cc(-c3ccccc3)nc2c1N=Nc1ccccc1`, the EC50 was 1.83 µM.

For the molecule `CN(C)c1ccc(C2C=C(c3ccc(Cl)cc3OC(F)F)Nc3ncnn32)cc1` (centres undefined), the EC50 is 10.8 µM.
